This is an account of results in patent US20140142140A1, “PHARMACEUTICAL COMPOSITION FOR NEUROLOGICAL DISORDERS” (priority 2011, published 2014).

Series [1] has as its system mood stabilisation or epileptic symptoms or events. Particulars: cited from earlier work.
Series [2] has as its system patients with Alzheimer's type dementia. The series can be described thus: Case reports, Mild Cognitive Impairment (MCI) and Dementia (Example 1). Conditions: Patient 1B, 7 year history of Alzheimer's type dementia. It is filed as in vivo, human. From the text: Patient 1A was an elderly person with history of impairment of cognitive function. Presumptive diagnosis of possible dementia of Alzheimers type.
Patient 1B was an elderly retired person with a 7 year history of Alzheimer's type dementia treated with the cholinesterase inhibitor Donepezil. […] Their cognitive function has gradually deteriorated since this time. […] Their reading was more fluent being better able to follow the meaning of the text. There was also improvement in their Stroop Test particularly in part three, the more cognitively demanding where their accuracy improved from 50 to 90%.

Series [3] relates to patients with autism / ASD / communication disorder. The series can be described thus: Case reports, Autism and other Pervasive Development Disorders (Example 6). It is filed as in vivo, human. From the text: Patient 6A: Adult, diagnosed in childhood with autism and ADHD. A long history of behavioural disturbance with frequent episodes of violence despite treatment with high-dose antipsychotic medication. […] The high-dose antipsychotic medication has been reduced without any associated loss of recent benefit. […] A history of behavioural disturbance and educational impairment. […] Patient 6C was an adult, diagnosed in childhood with autism and ADHD with a history of behavioural disturbance and educational impairment. […] Patient 6D: Adult, diagnosed in childhood with autism, ADHD and antisocial personality traits. […] Patient C's conversation became more appropriate and consistent together with reported improvements in significant relationships. […] Patient 6E was an adult, diagnosed with communication disorder and major depression. […] Patient 6F was an adult with ASD. […] The patient's conversation became more appropriate and consistent and improvements in significant relationships were reported. A reduction in the reliance on alcohol to alleviate anxiety in social situations was observed. […] Sodium valproate was withdrawn and improvement was noted. […] Patient 6G was as adult, diagnosed in childhood with ASD. […] Sodium valproate was withdrawn. […] This has also been associated with improvements in reading and verbal understanding. These benefits have been sustained in some situations for three years. Although difficult to be objective, there seems to be good evidence of ongoing improvement. […] Improvements in coordination, in fine and gross motor control have been reported and improvement in gait which frequently is a significant issue for individuals with autistic disorders.

Where a name gives a salt, the structure may show the parent alone. Read-outs that look alike come from different tables or passages of the source.

`CCC1(c2ccc(N)cc2)CCC(=O)NC1=O` (stereo not shown) [Aminoglutethimide]: in series [1] (per day), the “Minimum typical dose/day effective for mood stabilisation or treatment of epileptic symptoms or events” value (shortened to “Minimum typical dose/day effective”) was 125 mg. For `CCC1(c2ccccc2)C(=O)NC(=O)NC1=O.CNC(C)CC1CCCCC1` [Barbexaclone], the “Minimum typical dose/day effective” value in series [1] (per day) is 200 mg in divided doses. `CCC[C@@H]1CC(=O)N([C@@H](CC)C(N)=O)C1` [Brivaracetam]: in series [1] (per day), the “Minimum typical dose/day effective” value is on record as 100 mg. Turning to `NC(=O)N1c2ccccc2C=Cc2ccccc21` [Carbamazepine], in series [1] (per day), the “Minimum typical dose/day effective” value is recorded as 400 mg. On to `CN1C(=O)CC(=O)N(c2ccccc2)c2cc(Cl)ccc21` [Clobazam], for which, in series [1] (in vivo), the “Minimum typical dose/day effective” value is given as 5 mg/kg daily. With `O=C1CN=C(c2ccccc2Cl)c2cc([N+](=O)[O-])ccc2N1` [Clonazepam], in series [1] (per day), the “Minimum typical dose/day effective” value is 1 mg. For `COc1cc2c(cc1OC)C(=O)C(CC1CCN(Cc3ccccc3)CC1)C2` (stereo not shown) [Donepezil], the “subjective cognitive functioning and ADAS-cog” value in series [2] was “significant improvement in their subjective cognitive functioning”. Regarding `CCN1C(=O)OC(C)(C)C1=O` [Ethadione], the “Minimum typical dose/day effective” value in series [1] (per day) was 1000 mg.

For `CCC1(C)CC(=O)NC1=O` (stereo not shown) [Ethosuximide], in series [1] (per day), the “Minimum typical dose/day effective” value is given as 1000 mg. Regarding `CCN1C(=O)NC(c2ccccc2)C1=O` (stereo not shown) [Ethotoin], the “Minimum typical dose/day effective” value in series [1] (per day) is on record as 1000 mg.

Turning to `NC(=O)OCC(COC(N)=O)c1ccccc1` [Felbamate], in series [1] (per day), the “Minimum typical dose/day effective” value is on record as 1200 mg. Take `O=C1NC(c2ccccc2)(c2ccccc2)C(=O)N1COP(=O)(O)O` [Fosphenytoin Sodium]: in series [1] (per day), the “Minimum typical dose/day effective” value is 10 mg/kg. With `NCC1(CC(=O)O)CCCCC1` [Gabapentin, 2-[1-(aminomethyl)cyclohexyl]acetic acid], the “Minimum typical dose/day effective” value in series [1] (per day) is reported as 900 mg. With `COC[C@@H](NC(C)=O)C(=O)NCc1ccccc1` [Lacosamide], in series [1] (per day), the “Minimum typical dose/day effective” value was 200 mg. For the compound `Nc1nnc(-c2cccc(Cl)c2Cl)c(N)n1` [Lamotrigine, 3,5-diamino-6-(2,3-dichlorophenyl)-1,2,4-triazine], in series [1] (per day), the “Minimum typical dose/day effective” value is listed as 100 mg. On to `CC[C@@H](C(N)=O)N1CCCC1=O` [Levetiracetam], for which, in series [1] (per day), the “Minimum typical dose/day effective” value was 1000 mg. As to `COC1=CC(=O)OC1C(O)c1ccccc1Cl` (stereo not shown) [Losigamone], the “Minimum typical dose/day effective” value in series [1] (per day) is on record as 1500 mg. Turning to `CCC1(c2ccccc2)NC(=O)N(C)C1=O` (stereo not shown) [Mephenytoin], the “Minimum typical dose/day effective” value in series [1] (per day) is listed as 200 mg. As for `CCC1(c2ccccc2)NC(=O)N(C)C1=O` (stereo not shown) [Methoin], the “Minimum typical dose/day effective” value in series [1] (per day) is given as 1000 mg. Take `CN1C(=O)CC(C)(c2ccccc2)C1=O` (stereo not shown) [Methsuximide]: in series [1] (per day), the “Minimum typical dose/day effective” value was 300 mg. As to `NC(=O)N1c2ccccc2CC(=O)c2ccccc21` [Oxcarbazepine], the “Minimum typical dose/day effective” value in series [1] (per day) is listed as 600 mg. Turning to `CCC1(C)OC(=O)N(C)C1=O` (stereo not shown) [Paramethadione], the “Minimum typical dose/day effective” value in series [1] (per day) was 300 mg.

Take `N#Cc1ccccc1-c1cc(-c2ccccn2)cn(-c2ccccc2)c1=O` [Perampanel]: in series [1] (per day), the “Minimum typical dose/day effective” value is recorded as 2 mg.

Regarding `NC(=O)NC(=O)Cc1ccccc1` [Phenacemide], in series [1] (per day), the “Minimum typical dose/day effective” value is reported as 500 mg. For the compound `CCC(C(=O)NC(N)=O)c1ccccc1` (stereo not shown) [Pheneturide], the “Minimum typical dose/day effective” value in series [1] (per day) is recorded as 600 mg. For `CN1C(=O)CC(c2ccccc2)C1=O` (stereo not shown) [Phensuximide], the “Minimum typical dose/day effective” value in series [1] (per day) is given as 1000 mg. With `CC(C)C[C@H](CN)CC(=O)O` [Pregabalin, (S)-3-(aminomethyl)-5-methylhexanoic acid], in series [1] (per day), the “Minimum typical dose/day effective” value was 300 mg. Take `CCC1(c2ccccc2)C(=O)NCNC1=O` [Primidone]: the “Minimum typical dose/day effective” value in series [1] (per day) is listed as 750 mg. Take `NS(=O)(=O)c1ccc(N2CCCCS2(=O)=O)cc1` [Sultiame]: in series [1] (per day), the “Minimum typical dose/day effective” value is recorded as 200 mg. As to `Cc1ccsc1C(=CCCN1CCC[C@@H](C(=O)O)C1)c1sccc1C` [Tiagabine Hydrochloride], the “Minimum typical dose/day effective” value in series [1] (per day) is 30 mg. Consider `CC1(C)O[C@@H]2[C@@H](CO[C@@]3(COS(N)(=O)=O)OC(C)(C)O[C@@H]23)O1` [Topiramate, 2,3:4,5-Bis-O-(1-methylethylidene)-beta-D-fructopyranose sulfamate], for which the “Minimum typical dose/day effective” value in series [1] (per day) was 100 mg. Turning to `CN1C(=O)OC(C)(C)C1=O` [Trimethadione], the “Minimum typical dose/day effective” value in series [1] (per day) is reported as 900 mg. In the case of `C=CC(N)CCC(=O)O` (stereo not shown) [Vigabatrin], the “Minimum typical dose/day effective” value in series [1] (per day) was 1000 mg. In the case of `NS(=O)(=O)Cc1noc2ccccc12` [Zonisamide], in series [1] (per day), the “Minimum typical dose/day effective” value is listed as 200 mg. `CCCC(CCC)C(=O)O.[Na]` [sodium valproate, sodium di-n-propylacetic acid]: the “behaviour, verbal and non-verbal communication” value in series [3] (Patient 6, ASD, 50 mg daily) is “significant improvement in behaviour, verbal and non-verbal communication”. Further, the “reintroduction at lower dose” value in series [3] (Patient 6, 25 mg daily) was “successfully reintroduced”. Moreover, the “adverse effects within three days” value in series [3] (Patient 6, 50 mg daily) is “increasing cognitive slowing, general malaise and tiredness”. Besides, the communication entry in series [3] (Patient 6E, communication disorder and major depression, 50 mg) is “significant improvement in communication”; in series [3] (Patient 6E, 25 mg daily) it was “sustained improvement in the ability to communicate with less effort”. Besides, in series [3] (Patient 6E, medication ceased), the “benefits when medication ceased” value is “initial benefits were lost”. The “communication, eye contact, motor tics, social engagement” value in series [3] (Patient 6G, 25 mg on alternate days) is “sustained improvement in the communication, eye contact during dialogue, reduction in motor tics and greater social engagement and independently motivated activity”. Moreover, in series [3] (Patient 6G, 50 mg daily), the “communication and other symptoms of ASD” value is “improvement in communication and other symptoms of ASD”. For the same compound, the side-effects result in series [3] (Patient 6G, 50 mg daily) is “low mood and irritability”.
